In patent US20200002323A1, “COMPOUNDS” (GLAXOSMITHKLINE INTELLECTUAL PROPERTY DEVELOPMENT LIMITED, priority 2017, published 2020):

Molecular target: T1, recombinant full length LRRK2 protein over-expressed in SH-SY5Y cells (Homo sapiens, UniProt Q5S007)
T1 construct: engineered to over-express recombinant full length LRRK2 protein; host or cells: SH-SY5Y human neuroblastoma cells transduced with BacMam LRRK2 virus
Experiment: Recombinant cellular LRRK2 AlphaScreen assay (LRRK2 Ser935 phosphorylation)
Assay type: cell-based
Settings: human neuroblastoma SH-SY5Y cells over-expressing recombinant full length LRRK2, 60 minutes compound incubation, read-out: pIC50 in the recombinant cellular LRRK2 AlphaScreen assay (converted)
Text: b. Recombinant Cellular LRRK2 AlphaScreen Assay
To determine the activity of compounds against LRRK2 kinase activity in cells, the observed LRRK2 kinase-dependent modulation of LRRK2 Ser 935 phosphorylation (Dzamko et al., 2010, Biochem. J. 430: 405-413) was utilized to develop a quantitative 384 well plate-based immunoassay of LRRK2 Ser935 phosphorylation in the human neuroblastoma cell line SH-SY5Y, engineered to over-express recombinant full length LRRK2 protein.
A BacMam virus expressing full length recombinant LRRK2 was purchased from Invitrogen and amplified by inoculation of SF-9 cells at MOI 0.3 for 4-5 days in Sf-900 III SFM medium supplemented with 3% fetal bovine serum. Infected cell cultures were then centrifuged at 2000 g for 20 minutes, viral supernatant titer determined by anti-gp64 plaque assay and stored at 4° C.
Affinity-purified anti-phospho LRRK2 Ser935 sheep polyclonal antibody (Dzamko et al., 2010, Biochem. J. 430: 405-413) was biotinylated by standard methods (PerkinElmer). Anti-LRRK2 rabbit polyclonal antibody was purchased from Novus Biologicals. AlphaScreen Protein A IgG Kit (including acceptor and donor beads) was purchased from Perkin Elmer. […]
Serial dilutions of test compounds were prepared in Opti-MEM reduced serum media (Invitrogen) and 5.6 ul transferred from compound plate to cell assay plate to achieve a top final assay concentration of 10 uM. […] 10 ul of antibody/acceptor bead mix [(1/1000 biotinylated-pS935 LRRK2 antibody, 1/1000 total-LRRK2 antibody, 1/100 Acceptor beads in AlphaScreen detection buffer (25 mM Hepes (pH 7.4), 0.5% Triton X-100, 1 mg/ml Dextran 500 and 0.1% BSA)] was then added to each well and plates incubated for 2 hours at ambient temperature in the dark. 10 μl of donor beads solution (1/33.3 donor beads in AlphaScreen detection buffer) was then added to each well. Following incubation for a further 2 hours at ambient temperature in the dark, plates were read on an EnVision™ plate reader at emission 520-620 nm with excitation 680 nm. […]

T1 sequence (Q5S007 whole entry): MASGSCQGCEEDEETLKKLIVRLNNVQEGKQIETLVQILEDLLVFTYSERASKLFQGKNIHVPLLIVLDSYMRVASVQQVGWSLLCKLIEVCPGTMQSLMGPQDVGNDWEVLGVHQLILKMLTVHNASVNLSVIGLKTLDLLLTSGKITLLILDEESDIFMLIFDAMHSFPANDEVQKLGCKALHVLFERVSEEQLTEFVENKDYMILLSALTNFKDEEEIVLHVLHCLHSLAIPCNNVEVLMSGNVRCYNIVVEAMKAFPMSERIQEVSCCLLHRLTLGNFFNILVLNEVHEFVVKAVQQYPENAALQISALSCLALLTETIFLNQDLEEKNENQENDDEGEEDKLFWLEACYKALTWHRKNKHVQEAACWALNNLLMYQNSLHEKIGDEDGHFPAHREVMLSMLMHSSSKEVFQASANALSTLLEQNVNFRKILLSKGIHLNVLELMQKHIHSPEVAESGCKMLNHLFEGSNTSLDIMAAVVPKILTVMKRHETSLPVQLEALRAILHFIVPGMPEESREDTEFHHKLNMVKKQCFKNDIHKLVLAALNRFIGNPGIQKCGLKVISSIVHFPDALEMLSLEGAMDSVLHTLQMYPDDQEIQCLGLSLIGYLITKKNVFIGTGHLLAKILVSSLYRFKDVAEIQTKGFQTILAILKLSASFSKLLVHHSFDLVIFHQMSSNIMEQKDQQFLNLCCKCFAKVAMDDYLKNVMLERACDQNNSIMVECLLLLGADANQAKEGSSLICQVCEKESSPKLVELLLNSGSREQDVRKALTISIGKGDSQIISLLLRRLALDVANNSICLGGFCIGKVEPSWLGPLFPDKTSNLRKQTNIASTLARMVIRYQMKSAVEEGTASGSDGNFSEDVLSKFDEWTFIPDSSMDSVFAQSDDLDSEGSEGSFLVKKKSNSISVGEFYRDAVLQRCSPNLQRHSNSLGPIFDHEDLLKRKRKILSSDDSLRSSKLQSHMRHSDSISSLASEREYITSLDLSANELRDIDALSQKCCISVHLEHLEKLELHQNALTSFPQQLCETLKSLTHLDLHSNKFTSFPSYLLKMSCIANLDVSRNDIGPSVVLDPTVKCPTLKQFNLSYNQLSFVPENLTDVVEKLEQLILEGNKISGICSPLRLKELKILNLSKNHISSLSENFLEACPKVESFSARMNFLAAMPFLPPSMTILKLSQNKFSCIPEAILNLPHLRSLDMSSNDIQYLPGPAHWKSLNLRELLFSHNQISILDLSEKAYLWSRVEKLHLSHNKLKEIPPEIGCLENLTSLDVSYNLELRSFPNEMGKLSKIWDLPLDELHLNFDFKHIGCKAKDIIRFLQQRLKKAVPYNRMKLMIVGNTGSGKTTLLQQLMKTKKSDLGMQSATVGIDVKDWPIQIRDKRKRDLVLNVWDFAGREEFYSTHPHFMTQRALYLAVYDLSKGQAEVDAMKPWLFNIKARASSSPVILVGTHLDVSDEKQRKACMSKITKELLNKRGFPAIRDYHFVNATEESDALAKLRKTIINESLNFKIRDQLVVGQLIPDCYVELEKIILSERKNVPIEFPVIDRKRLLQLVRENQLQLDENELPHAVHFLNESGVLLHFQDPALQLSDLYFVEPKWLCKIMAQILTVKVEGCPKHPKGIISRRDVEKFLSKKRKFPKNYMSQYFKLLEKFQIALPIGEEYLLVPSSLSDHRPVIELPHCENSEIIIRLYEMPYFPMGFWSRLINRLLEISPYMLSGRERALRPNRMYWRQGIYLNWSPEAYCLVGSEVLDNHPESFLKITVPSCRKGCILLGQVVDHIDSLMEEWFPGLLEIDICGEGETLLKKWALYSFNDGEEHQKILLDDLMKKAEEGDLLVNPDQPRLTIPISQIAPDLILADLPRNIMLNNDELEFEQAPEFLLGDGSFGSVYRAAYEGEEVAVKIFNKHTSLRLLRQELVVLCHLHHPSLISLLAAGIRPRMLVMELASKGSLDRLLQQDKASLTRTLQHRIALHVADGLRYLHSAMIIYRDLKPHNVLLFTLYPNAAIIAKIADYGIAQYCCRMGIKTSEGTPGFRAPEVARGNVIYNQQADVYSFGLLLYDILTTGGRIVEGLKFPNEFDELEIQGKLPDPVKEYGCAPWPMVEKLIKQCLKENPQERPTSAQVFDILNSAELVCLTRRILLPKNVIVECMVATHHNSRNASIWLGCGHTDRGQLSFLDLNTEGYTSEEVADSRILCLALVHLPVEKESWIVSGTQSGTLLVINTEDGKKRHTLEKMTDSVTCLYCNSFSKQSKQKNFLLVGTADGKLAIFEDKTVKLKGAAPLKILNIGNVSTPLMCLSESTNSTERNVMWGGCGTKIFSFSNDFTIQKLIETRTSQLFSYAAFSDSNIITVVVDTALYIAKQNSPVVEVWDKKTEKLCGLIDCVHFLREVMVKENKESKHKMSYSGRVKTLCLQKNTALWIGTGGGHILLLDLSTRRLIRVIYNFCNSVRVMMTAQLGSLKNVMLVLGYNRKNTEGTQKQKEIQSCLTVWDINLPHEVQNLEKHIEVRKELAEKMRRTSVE

SMILES	IC50 [nM]
COc1nc(N2CCOCC2)cc(-n2ncc3cc(C)c(C4CCN(CCO)CC4F)cc32)n1 (single isomer, unassigned) [Example E1, 2-(3-fluoro-4-(1-(2-methoxy-6-morpholinopyrimidin-4-yl)-5-methyl-1H-indazol-6-yl)piperidin-1-yl)ethanol]	5.01
Cc1nc(N2CCO[C@@H](CO)C2)cc(-n2ncc3cc(C)c(C4CCN(CC(C)O)CC4F)cc32)n1 (single isomer, unassigned) [Example E29]	6.31
COc1nc(N2CC(O)C2)cc(-n2ncc3cc(C)c(C4CCN(CCS(C)(=O)=O)CC4)cc32)n1 [Example E42, 1-(2-methoxy-6-(5-methyl-6-(1-(2-(methylsulfonyl)ethyl)piperidin-4-yl)-1H-indazol-1-yl)pyrimidin-4-yl)azetidin-3-ol]	2
